Assay results as given in PubChem BioAssay AID1963446 (Molecular Pharmacology Branch, DTP, NCI, 2024).
“And” between values parts separate entries of the source, which are not always exact repeats. Identical values can stand only once.

System: 993429-296-R-J1-PDC complex spheroid growth, percent test/control
Experiment: Anticancer human tumor 993429-296-R-J1-PDC patient-derived uterine sarcoma cell line growth inhibition [Asc]
Settings: for viability, T/C: stronger effect = lower value
How it was run: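 Tumor cells were grown as multicellular spheroids with stromal HUVEC and mesenchymal stem cells and treated singly or in combination. Concentrations fell in half-log steps from the clinical Cmax, or from 10 microM where none was known.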

[1] = curve of first compound, second compound 0.1 µM
[2] = curve of first compound, second compound 0.316 µM
[3] = curve of first compound, second compound 1 µM
[4] = second compound 0.1 µM, first compound 0.0316 µM
[5] = second compound 0.1 µM, first compound 0.1 µM
[6] = second compound 0.1 µM, first compound 0.316 µM
[7] = second compound 0.1 µM, first compound 1 µM
[8] = second compound 0.316 µM, first compound 0.0316 µM
[9] = second compound 0.316 µM, first compound 0.1 µM
[10] = second compound 0.316 µM, first compound 0.316 µM
[11] = second compound 0.316 µM, first compound 1 µM
[12] = second compound 1 µM, first compound 0.0316 µM
[13] = second compound 1 µM, first compound 0.1 µM
[14] = second compound 1 µM, first compound 0.316 µM
[15] = second compound 1 µM, first compound 1 µM
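Also: spheroids exposed to compounds for seven days.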

With `O=C(c1cc(Cc2n[nH]c(=O)c3ccccc23)ccc1F)N1CCN(C(=O)C2CC2)CC1` + CCN1C(C(=O)NC23CCC(C(=O)O)(CC2)CC3)C(c2cccc(Cl)c2F)C2(C(=O)Nc3cc(Cl)ccc32)C12CCCCC2 the IC50 (curve of first compound, second compound 0.03 µM) was 6360 nM, the IC50 (curve of first compound, second compound 0.0949 µM) was 4840 nM and the IC50 (curve of first compound, second compound 0.3 µM) was 6870 nM. For the same molecule, the IC50 (curve of first compound, second compound 0.949 µM) was 4900 nM, the IC50 (curve of first compound, second compound 3 µM) was 3040 nM and the viability, T/C (second compound 0.03 µM, first compound 0.0316 µM) was 87.8%. It also gave a viability, T/C (second compound 0.03 µM, first compound 0.1 µM) of 104%, a viability, T/C (second compound 0.03 µM, first compound 0.316 µM) of 98% and a viability, T/C (second compound 0.03 µM, first compound 1 µM) of 100%. It also gave a viability, T/C (second compound 0.03 µM, first compound 3.16 µM) of 66.3%, a viability, T/C (second compound 0.03 µM, first compound 10 µM) of 39.5% and a viability, T/C (second compound 0.0949 µM, first compound 0.0316 µM) of 109%. The viability, T/C (second compound 0.0949 µM, first compound 0.1 µM) was 106%, the viability, T/C (second compound 0.0949 µM, first compound 0.316 µM) was 87.9% and the viability, T/C (second compound 0.0949 µM, first compound 1 µM) was 113%. For the same molecule, the viability, T/C (second compound 0.0949 µM, first compound 3.16 µM) was 61.9%, the viability, T/C (second compound 0.0949 µM, first compound 10 µM) was 29.6% and the viability, T/C (second compound 0.3 µM, first compound 0.0316 µM) was 92%. It also gave a viability, T/C (second compound 0.3 µM, first compound 0.1 µM) of 100%, a viability, T/C (second compound 0.3 µM, first compound 0.316 µM) of 99.7% and a viability, T/C (second compound 0.3 µM, first compound 1 µM) of 78.6%. It also gave a viability, T/C (second compound 0.3 µM, first compound 3.16 µM) of 76.1%, a viability, T/C (second compound 0.3 µM, first compound 10 µM) of 38.5% and a viability, T/C (second compound 0.949 µM, first compound 0.0316 µM) of 100%. The viability, T/C (second compound 0.949 µM, first compound 0.1 µM) was 113%, the viability, T/C (second compound 0.949 µM, first compound 0.316 µM) was 88.8% and the viability, T/C (second compound 0.949 µM, first compound 1 µM) was 81%. It also gave a viability, T/C (second compound 0.949 µM, first compound 3.16 µM) of 62.2%, a viability, T/C (second compound 0.949 µM, first compound 10 µM) of 32.1% and a viability, T/C (second compound 3 µM, first compound 0.0316 µM) of 96.6%. For the same molecule, the viability, T/C (second compound 3 µM, first compound 0.1 µM) was 90.3%, the viability, T/C (second compound 3 µM, first compound 0.316 µM) was 78.4% and the viability, T/C (second compound 3 µM, first compound 1 µM) was 83.1%. It also gave a viability, T/C (second compound 3 µM, first compound 3.16 µM) of 48.3% and a viability, T/C (second compound 3 µM, first compound 10 µM) of 33.1%.

For `Cn1ncnc1[C@H]1c2n[nH]c(=O)c3cc(F)cc(c23)N[C@@H]1c1ccc(F)cc1`, the viability, T/C (compound 0.000316 µM) was 92.8% and 98.9% and 94.3%, the viability, T/C (compound 0.001 µM) was 93.2% and 97.5% and 95.5% and the viability, T/C (compound 0.00316 µM) was 83.8% and 99.4% and 81.2%. For the same molecule, the viability, T/C (compound 0.01 µM) was 74.3% and 92% and 84.6%, the viability, T/C (compound 0.0316 µM) was 62.5% and 70.2% and 57.7% and the viability, T/C (compound 0.1 µM) was 35.8% and 69.9% and 42%. For the same molecule, the IC50 (curve of compound) was 52.4 nM and > 100 nM and 58.6 nM.

Molecule `C=C(F)C(=O)N1CCN(c2nc(OCC3CCCN3C)nc3c2CCN(c2cccc4cccc(Cl)c24)C3)CC1CC#N` (stereo unspecified) + CNC(C)C(=O)NC1CN(S(=O)(=O)c2cccc(S(=O)(=O)N3CCC4CCC(C(=O)NC(c5ccccc5)c5ccccc5)N4C(=O)C(NC(=O)C(C)NC)C3)c2)CCC2CCC(C(=O)NC(c3ccccc3)c3ccccc3)N2C1=O has an IC50 (curve of first compound, second compound 0.01 µM) of 1010 nM, an IC50 (curve of first compound, second compound 0.0316 µM) of 1040 nM and an IC50 [1] of 617 nM. The IC50 [2] was less than 31.6 nM, the IC50 [3] was 55.9 nM and the viability, T/C (second compound 0.01 µM, first compound 0.0316 µM) was 54.2%. For the same molecule, the viability, T/C (second compound 0.01 µM, first compound 0.1 µM) was 59.8%, the viability, T/C (second compound 0.01 µM, first compound 0.316 µM) was 57.6% and the viability, T/C (second compound 0.01 µM, first compound 1 µM) was 50.4%. It also gave a viability, T/C (second compound 0.01 µM, first compound 3.16 µM) of 7.74%, a viability, T/C (second compound 0.01 µM, first compound 10 µM) of 0.13% and a viability, T/C (second compound 0.0316 µM, first compound 0.0316 µM) of 59.9%. The viability, T/C (second compound 0.0316 µM, first compound 0.1 µM) was 58.6%, the viability, T/C (second compound 0.0316 µM, first compound 0.316 µM) was 55.4% and the viability, T/C (second compound 0.0316 µM, first compound 1 µM) was 51.7%. The viability, T/C (second compound 0.0316 µM, first compound 3.16 µM) was 5.7%, the viability, T/C (second compound 0.0316 µM, first compound 10 µM) was 0.12% and the viability, T/C [4] was 51.4%. It also gave a viability, T/C [5] of 54.7%, a viability, T/C [6] of 54.8% and a viability, T/C [7] of 47.4%. For the same molecule, the viability, T/C (second compound 0.1 µM, first compound 3.16 µM) was 7.4%, the viability, T/C (second compound 0.1 µM, first compound 10 µM) was 0.12% and the viability, T/C [8] was 45.9%. It also gave a viability, T/C [9] of 52.4%, a viability, T/C [10] of 40.3% and a viability, T/C [11] of 45.4%. For the same molecule, the viability, T/C (second compound 0.316 µM, first compound 3.16 µM) was 7.07%, the viability, T/C (second compound 0.316 µM, first compound 10 µM) was 0.12% and the viability, T/C [12] was 57.8%. It also gave a viability, T/C [13] of 37.8%, a viability, T/C [14] of 37.6% and a viability, T/C [15] of 34.2%. The viability, T/C (second compound 1 µM, first compound 3.16 µM) was 3.13% and the viability, T/C (second compound 1 µM, first compound 10 µM) was 0.2%.

In the case of `CCN1CCN(Cc2ccc(Nc3ncc(F)c(-c4cc(F)c5nc(C)n(C(C)C)c5c4)n3)nc2)CC1` + Cc1c(S(C)(=O)=O)c(-c2cc(F)cc(N3CCN(c4ccc(NS(=O)(=O)c5ccc(NC(CCN6CCC(C(=O)OCCCP(=O)(O)O)CC6)CSc6ccccc6)c(S(=O)(=O)C(F)(F)F)c5)cc4)CC3)c2)c(-c2ccc(Cl)cc2)n1C(C)C, the IC50 [1] is reported as greater than 1000 nM, the IC50 [2] is reported as 859 nM and the IC50 [3] is reported as 344 nM. For the same molecule, the IC50 (curve of first compound, second compound 3.16 µM) was less than 3.16 nM, the IC50 (curve of first compound, second compound 10 µM) was 463 nM and the viability, T/C (second compound 0.1 µM, first compound 0.00316 µM) was 70.2%. It also gave a viability, T/C (second compound 0.1 µM, first compound 0.01 µM) of 81.9%, a viability, T/C [4] of 64.3% and a viability, T/C [5] of 60.6%. For the same molecule, the viability, T/C [6] was 85%, the viability, T/C [7] was 50.7% and the viability, T/C (second compound 0.316 µM, first compound 0.00316 µM) was 54.2%. For the same molecule, the viability, T/C (second compound 0.316 µM, first compound 0.01 µM) was 55.5%, the viability, T/C [8] was 63.5% and the viability, T/C [9] was 64.7%. For the same molecule, the viability, T/C [10] was 64.3%, the viability, T/C [11] was 32.5% and the viability, T/C (second compound 1 µM, first compound 0.00316 µM) was 48.1%. The viability, T/C (second compound 1 µM, first compound 0.01 µM) was 52.4%, the viability, T/C [12] was 49.5% and the viability, T/C [13] was 58.7%. The viability, T/C [14] was 55%, the viability, T/C [15] was 16.5% and the viability, T/C (second compound 3.16 µM, first compound 0.00316 µM) was 37.3%. The viability, T/C (second compound 3.16 µM, first compound 0.01 µM) was 45.3%, the viability, T/C (second compound 3.16 µM, first compound 0.0316 µM) was 46.6% and the viability, T/C (second compound 3.16 µM, first compound 0.1 µM) was 41.8%. For the same molecule, the viability, T/C (second compound 3.16 µM, first compound 0.316 µM) was 38.7%, the viability, T/C (second compound 3.16 µM, first compound 1 µM) was 16.2% and the viability, T/C (second compound 10 µM, first compound 0.00316 µM) was 70.5%. The viability, T/C (second compound 10 µM, first compound 0.01 µM) was 67.4%, the viability, T/C (second compound 10 µM, first compound 0.0316 µM) was 71.2% and the viability, T/C (second compound 10 µM, first compound 0.1 µM) was 76.9%. The viability, T/C (second compound 10 µM, first compound 0.316 µM) was 67.4% and the viability, T/C (second compound 10 µM, first compound 1 µM) was 14%.

`C=C(F)C(=O)N1CCN(c2nc(OCC3CCCN3C)nc3c2CCN(c2cccc4cccc(Cl)c24)C3)CC1CC#N` (stereo unspecified) was tested, and the viability, T/C (compound 0.0316 µM) was 85.9% and 98.6% and 98.2%, the viability, T/C (compound 0.1 µM) was 93.5% and 103% and 95.2% and the viability, T/C (compound 0.316 µM) was 82.5% and 88.7% and 91.7%. For the same molecule, the viability, T/C (compound 1 µM) was 43.8% and 63.6% and 99.8%, the viability, T/C (compound 3.16 µM) was 6.98% and 7.87% and 29.6% and the viability, T/C (compound 10 µM) was 0.4% and 0.19% and 0.21%. The IC50 (curve of compound) was 836 nM and 1300 nM and 2220 nM.

In the case of `CCN1CCN(Cc2ccc(Nc3ncc(F)c(-c4cc(F)c5nc(C)n(C(C)C)c5c4)n3)nc2)CC1`, the viability, T/C (compound 0.00316 µM) is reported as 90.1% (2×) and 100%, the viability, T/C (compound 0.01 µM) is reported as 86.7% and 111% and 99.3% and the viability, T/C (compound 0.0316 µM) is reported as 94.1% and 105% and 92.7%. The viability, T/C (compound 0.1 µM) was 85.6% and 98.3% and 93.6%, the viability, T/C (compound 0.316 µM) was 98.6% and 119% and 100% and the viability, T/C (compound 1 µM) was 88.5% and 94.9% and 86.3%. For the same molecule, the IC50 (curve of compound) was greater than 1000 nM.
